Source: publication PMC4859520, “Binding Properties of General Odorant Binding Proteins from the Oriental Fruit Moth, Grapholita molesta (Busck) (Lepidoptera: Tortricidae)” (PLoS ONE, 2016)
“Also recorded” adds a separate entry of the source. Like-named read-outs stand apart in the source and are kept apart here.

Assays:
GmolGOBP1 = GmolGOBP1 (Grapholita molesta, UniProt H9XTU5); assay: Fluorescence competitive binding assay with probe 1-NPN, rGmolGOBP1; conditions: for binding to rGmolGOBP1 (in words): competitive binding with 1-NPN
Chain of GmolGOBP1 (H9XTU5 entry or part of it): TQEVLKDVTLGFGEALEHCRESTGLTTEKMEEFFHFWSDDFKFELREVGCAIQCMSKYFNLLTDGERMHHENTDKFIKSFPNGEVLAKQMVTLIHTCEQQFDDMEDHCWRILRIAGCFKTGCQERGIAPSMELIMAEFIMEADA
Protocol: (§1) Fluorescence binding assays were performed on a Hitachi (Tokyo, Japan) F-4500 fluorescence spectrophotometer with a 1 cm light path fluorimeter quartz cuvette. Both of the slit widths for excitation and emission were 10 nm. 1-N-phenyl-naphthylamine (1-NPN) was dissolved in HPLC purity grade methanol to yield a 1 mM stock solution. […] The probes were excited at 337 nm and emission spectra were recorded between 370 and 550 nm. […] Binding data were collected in three independent measurements.
(§2) Dissociation constants of the complex GmolGOBPs/1-NPN (K1-NPN) were calculated by a nonlinear regression binding curve, using Prism 5.0 (GraphPad Software Inc.).

GmolGOBP2 = GmolGOBP2 (Grapholita molesta, UniProt H9XTU6); assay: Fluorescence competitive binding assay with probe 1-NPN, rGmolGOBP2 wild-type
Chain of GmolGOBP2 (H9XTU6 entry or part of it): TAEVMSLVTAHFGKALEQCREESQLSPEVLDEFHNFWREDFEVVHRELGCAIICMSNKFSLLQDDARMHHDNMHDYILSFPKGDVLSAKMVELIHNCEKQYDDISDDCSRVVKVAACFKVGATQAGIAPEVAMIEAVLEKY
Protocol: as §1, §2

GmolGOBP2 T9A = GmolGOBP2 T9A (Grapholita molesta, UniProt H9XTU6, T29A); assay: Fluorescence competitive binding assay, GmolGOBP2 mutant T9A
Chain of GmolGOBP2 T9A (H9XTU6 entry or part of it T29A): as the sequence (H9XTU6 entry or part of it) above, with T9A counted along it
Protocol: (§3) Fluorescence binding assays were performed on a Hitachi (Tokyo, Japan) F-4500 fluorescence spectrophotometer with a 1 cm light path fluorimeter quartz cuvette. Both of the slit widths for excitation and emission were 10 nm. 1-N-phenyl-naphthylamine (1-NPN) was dissolved in HPLC purity grade methanol to yield a 1 mM stock solution. A 2 μM solution of the protein in 20 mM Tris-HCl, pH 7.4, was titrated with aliquots of 1 mM 1-NPN to final concentrations of 1, 2, 4, 6, 8, 10, 12, 14, 16, 18, and 22 μM. The probes were excited at 337 nm and emission spectra were recorded between 370 and 550 nm. All ligands (S1 File) used in competitive binding assays were also dissolved in HPLC purity grade methanol. The final concentrations of sex pheromones were between 1 and 22 μM for each rGmolGOBP protein, whereas the concentrations of 30 synthetic plant volatiles to rGmolGOBP1 and 2 were up to 64 and 100 μM, respectively. Binding data were collected in three independent measurements.
(§4) Dissociation constants of the complex GmolGOBPs/1-NPN (K1-NPN) were calculated by a nonlinear regression binding curve, using Prism 5.0 (GraphPad Software Inc.). The inhibition constants (Ki) of the competitors were computed from the corresponding IC50 values using the equation: Ki = [IC50]/(1+[1−NPN]/K1−NPN), where [1−NPN] is the free concentration of 1−NPN and K1-NPN is the dissociation constant of the complex protein/1-NPN.
(§5) Gene-specific primers were designed in accordance with the recommended protocols of the TaKaRa MutanBEST Kit (TaKaRa, Shiga, Japan). The GmolGOBP2 coding sequence was mutated to create the three mutants GmolGOBP2 T9A (threonine to alanine at position 9), GmolGOBP2 V111A (valine to alanine at position 111), and GmolGOBP2 V114A (valine to alanine at position 114). Mutations were obtained using the TaKaRa MutanBEST Kit with Pyrobest DNA polymerase with the pMD19-T/GmolGOBP2 plasmid DNA as template. All plasmids containing mutations were verified by DNA sequencing. Mutated protein expression and enrichment were performed as described above for rGmolGOBP1 and 2. After determining concentrations, purified mutants were applied to verify the binding affinities with dodecanol and its analogs in fluorescence ligand-binding assays.

GmolGOBP2 V111A = GmolGOBP2 V111A (Grapholita molesta, UniProt H9XTU6, V131A); assay: Fluorescence competitive binding assay, GmolGOBP2 mutant V111A; conditions: for affinity of V111A mutant versus wild-type (in words): V111A versus wild-type rGmolGOBP2
Chain of GmolGOBP2 V111A (H9XTU6 entry or part of it V131A): as the sequence (H9XTU6 entry or part of it) above, with V111A counted along it
Protocol: as §3, §4, §5

GmolGOBP2 V114A = GmolGOBP2 V114A (Grapholita molesta, UniProt H9XTU6, V134A); assay: Fluorescence competitive binding assay, GmolGOBP2 mutant V114A; conditions: for affinity of V114A mutant versus wild-type (in words): V114A versus wild-type rGmolGOBP2
Chain of GmolGOBP2 V114A (H9XTU6 entry or part of it V134A): as the sequence (H9XTU6 entry or part of it) above, with V114A counted along it
Protocol: as §3, §4, §5

rGmolGOBP2 = rGmolGOBP2 (Grapholita molesta, UniProt H9XTU6); assay: Effect of pH on binding affinity of rGmolGOBP2
Chain of rGmolGOBP2 (H9XTU6 entry or part of it): as the sequence (H9XTU6 entry or part of it) above
Protocol: Based on the fluorescence measurement experiments as described above, we further evaluated the effects of pH on the binding affinities of GmolGOBP2 to ligands; the binding of GmolGOBP2 to the representative ligand dodecanol was detected at six different pH values (4.0, 5.0, 6.8, 7.4, 8.0 and 8.8) in 20 mM Tris-HCl buffer. All the values of binding affinities were collected in three independent measurements. Data are reported as means±SEM. Difference in pH effect on binding affinity of rGmolGOBP2 was analyzed with one-way analysis of variance (ANOVA), followed by the Student-Newman-Keuls (S-N-K) test at α = 0.05. P<0.05 was considered statistically significant. For statistical analysis we used SPSS 16.0 software (SPSS Inc., Chicago, IL).

rGmolOBP15 = biological target: rGmolOBP15; parameters: method as in PMID 26609640; conditions: cited from earlier work
rGmolPBP1 = biological target: rGmolPBP1; parameters: method as in earlier work; conditions: cited from earlier work
[1] = protein and 1-NPN 2 μM, pH 7.4, calculated from IC50, read-out: GmolGOBP2 Ki
[2] = protein and 1-NPN 2 μM, pH 7.4, displacing half of initial fluorescence, read-out: GmolGOBP2 IC50
[3] = T9A versus wild-type rGmolGOBP2
[4] = protein and 1-NPN 2 μM, pH 7.4, calculated from IC50, read-out: GmolGOBP1 Ki
[5] = protein and 1-NPN 2 μM, pH 7.4, displacing half of initial fluorescence, read-out: GmolGOBP1 IC50

CCCCCCCCCCCCO [12:OH, dodecanol]
binding to rGmolGOBP1 (in words) (GmolGOBP1): did not bind
Ki (GmolGOBP2; [1]): 1.22 µM
IC50 (GmolGOBP2; [2]): 1.78 ± 0.23 µM
Ki (GmolGOBP2 T9A): 6.04 ± 0.17 µM
decrease in affinity of T9A mutant (GmolGOBP2 T9A; [3]): 3-5 fold
Ki (GmolGOBP2 V111A): 1.35 ± 0.22 µM
affinity of V111A mutant versus wild-type (in words) (GmolGOBP2 V111A): slightly lower affinities
Ki (GmolGOBP2 V114A): 1.78 ± 0.13 µM
affinity of V114A mutant versus wild-type (in words) (GmolGOBP2 V114A): slightly lower affinities
binding affinity of rGmolGOBP2 at pH 4.0 (in words) (rGmolGOBP2; pH 4.0, 20 mM Tris-HCl): weak ability
binding affinity of rGmolGOBP2 at pH 7.4 (in words) (rGmolGOBP2; pH 7.4, 20 mM Tris-HCl, six pH values 4.0 to 8.8 compared): maximum value; also recorded: pronounced binding affinity
Ki (rGmolOBP15): 3.24 µM

CCCCC(CC)CO (stereo not shown) [2-Ethyl-1-hexanol]
Ki (GmolGOBP1; [4]): 24.8 µM
IC50 (GmolGOBP1; [5]): 27 ± 1.81 µM

CCCCCCCCCCO [decanol]
Ki (GmolGOBP2): 15.3 ± 1 µM
Ki (GmolGOBP2 T9A): 39.6 ± 2.34 µM
decrease in affinity of T9A mutant (GmolGOBP2 T9A; [3]): 3-5 fold
Ki (GmolGOBP2 V111A): 11.3 ± 0.17 µM
affinity of V111A mutant versus wild-type (in words) (GmolGOBP2 V111A): no differences
Ki (GmolGOBP2 V114A): 15.6 ± 0.43 µM
affinity of V114A mutant versus wild-type (in words) (GmolGOBP2 V114A): no differences

CCCCCCC(=O)OCC [Ethyl heptanoate]
Ki (GmolGOBP1; [4]): 34.4 µM
IC50 (GmolGOBP1; [5]): 37.4 ± 2.35 µM
Ki (GmolGOBP2; [1]): 73.2 µM
IC50 (GmolGOBP2; [2]): 88.7 ± 3.01 µM

CCCC(=O)OCC [Ethyl butyrate]
Ki (GmolGOBP1; [4]): 33.2 µM
IC50 (GmolGOBP1; [5]): 36.1 ± 2.88 µM

CCC/C=C\CCCCCCCOC(C)=O [Z8-12:AC, (Z)-8-dodecenyl acetate]
binding to rGmolGOBP1 (in words) (GmolGOBP1): did not bind
Ki (GmolGOBP2; [1]): 14.4 µM
IC50 (GmolGOBP2; [2]): 17.4 ± 0.87 µM
Ki (rGmolPBP1): 1.1 µM

CC1=CCC2CC1C2(C)C (stereo not drawn) [α-Pinene]
IC50 (GmolGOBP1): 16.1 ± 1.22 µM
Ki (GmolGOBP1): 14.8 µM
IC50 (GmolGOBP2): 51.7 ± 7.11 µM
Ki (GmolGOBP2): 42.6 µM

CC(=O)OCCC(C)C [Isoamyl acetate]
Ki (GmolGOBP1; [4]): 26.6 µM
IC50 (GmolGOBP1; [5]): 29 ± 2.18 µM

CC(C)CCO [3-Methyl-1-butanol]
Ki (GmolGOBP1; [4]): 10.7 µM
IC50 (GmolGOBP1; [5]): 11.6 ± 0.81 µM

CCCCCCCCCCCCCCC [Pentadecane]
Ki (GmolGOBP1; [4]): 11.4 µM
IC50 (GmolGOBP1; [5]): 12.4 ± 1.87 µM

CCCCCCCCCCCCCC [Tetradecane]
Ki (GmolGOBP1; [4]): 8.47 µM
IC50 (GmolGOBP1; [5]): 9.21 ± 1.31 µM

CCCCCC=O [Hexanal]
IC50 (GmolGOBP1): 33.6 ± 2 µM
Ki (GmolGOBP1): 30.9 µM

CC/C=C\CCOC(C)=O [Cis-3-Hexenyl acetate]
Ki (GmolGOBP1; [4]): 22.4 µM
IC50 (GmolGOBP1; [5]): 24.3 ± 1.71 µM

C=C/C(C)=C/CCC(=C)C [α-Ocimene]
Ki (GmolGOBP1; [4]): 12.4 µM
IC50 (GmolGOBP1; [5]): 13.5 ± 0.79 µM
Ki (GmolGOBP2; [1]): 44.1 µM
IC50 (GmolGOBP2; [2]): 53.4 ± 4.91 µM

N#Cc1ccccc1 [Benzonitrile]
IC50 (GmolGOBP1): 40.4 ± 1.95 µM
Ki (GmolGOBP1): 37.1 µM

CCCCCCCCCCCCCCCCO [hexadecanol]
Ki (GmolGOBP2; rGmolGOBP2 wild-type, protein and 1-NPN 2 μM, ligand 0 to 14 μM, read-out: Ki Wild-Type): 1.35 ± 0.45 µM
Ki (GmolGOBP2 T9A): 22.4 ± 3.03 µM
affinity of T9A mutant versus wild-type (in words) (GmolGOBP2 T9A; [3]): drastical decline in affinity
Ki (GmolGOBP2 V111A): 1.36 ± 0.13 µM
affinity of V111A mutant versus wild-type (in words) (GmolGOBP2 V111A): no differences
Ki (GmolGOBP2 V114A): 1.99 ± 0.74 µM
affinity of V114A mutant versus wild-type (in words) (GmolGOBP2 V114A): no differences

CCCCCCCC=O [Octanal]
Ki (GmolGOBP1; [4]): 21.5 µM
IC50 (GmolGOBP1; [5]): 23.3 ± 1.43 µM
Ki (GmolGOBP2; [1]): 66.4 µM
IC50 (GmolGOBP2; [2]): 80.4 ± 3.79 µM

CCCCCCCCCC=O [Decanal]
Ki (GmolGOBP1; [4]): 16 µM
IC50 (GmolGOBP1; [5]): 17.4 ± 1.3 µM
Ki (GmolGOBP2; [1]): 42.4 µM
IC50 (GmolGOBP2; [2]): 51.3 ± 3.18 µM

CCCCOC(C)=O [Butyl acetate]
IC50 (GmolGOBP1): 39.9 ± 2.66 µM
Ki (GmolGOBP1): 36.7 µM
